Test results reported in patent US20230322846A9, “NEUROACTIVE STEROIDS AND THEIR METHODS OF USE” (SAGE THERAPEUTICS, INC., priority 2018, published 2023).

biological target: [35S]-TBPS binding, rat brain cortical membranes; experiment: Steroid inhibition of [35S]-TBPS binding; conditions: 3 nM [35S]-TBPS, in the presence of 5 mM GABA
Procedure: [^35S]-t-Butylbicyclophosphorothionate (TBPS) binding assays using rat brain cortical membranes in the presence of 5 mM GABA has been described (Gee et al, J. Pharmacol. Exp. Ther. 1987, 241, 346-353; Hawkinson et al, Mol. Pharmacol. 1994, 46, 977-985; Lewin, A. H et al., Mol. Pharmacol. 1989, 35, 189-194).
Briefly, cortices are rapidly removed following decapitation of carbon dioxide-anesthetized Sprague-Dawley rats (200-250 g). The cortices are homogenized in 10 volumes of ice-cold 0.32 M sucrose using a glass/teflon homogenizer and centrifuged at 1500×g for 10 min at 4° C. The resultant supernatants are centrifuged at 10,000×g for 20 min at 4° C. to obtain the P2 pellets. The P2 pellets are resuspended in 200 mM NaCl/50 mM Na—K phosphate pH 7.4 buffer and centrifuged at 10,000×g for 10 min at 4° C. This washing procedure is repeated twice and the pellets are resuspended in 10 volumes of buffer. Aliquots ([…]) of the membrane suspensions are incubated with 3 nM [^35S]-TBPS and […] aliquots of test drug dissolved in dimethyl sulfoxide (DMSO) (final 0.5%) in the presence of 5 mM GABA. The incubation is brought to a final volume of 1.0 mL with buffer. Nonspecific binding is determined in the presence of […] and ranged from 15 to 25%. Following a 90 min incubation at room temp, the assays are terminated by filtration through glass fiber filters (Schleicher and Schuell No. 32) using a cell harvester (Brandel) and rinsed three times with ice-cold buffer. Filter bound radioactivity is measured by liquid scintillation spectrometry. Non-linear curve fitting of the overall data for each drug averaged for each concentration is done using Prism (GraphPad). […] The concentration of test compound producing 50% inhibition (IC50) of specific binding and the maximal extent of inhibition (Imax) are determined for the individual experiments with the same model used for the overall data and then the means±SEM.s of the individual experiments are calculated.
Various compounds are or can be screened to determine their potential as modulators of [^35S]-TBPS binding in vitro. These assays are or can be performed in accordance with the above

Compound | IC50
C[C@@H](NS(=O)(=O)c1ccccc1)[C@H]1CC[C@H]2[C@@H]3CC[C@@H]4C[C@](C)(O)CC[C@@H]4[C@H]3CC[C@]12C [Example 18, N—((R)-1-((3R,5R,8R,9R,10S,13S,14S,17S)-3-hydroxy-3,13-dimethylhexadecahydro-1H-cyclopenta[a]phenanthren-17-yl)ethyl)benzenesulfonamide] | < 100 nM
C[C@@H]([C@H]1CC[C@H]2[C@@H]3CC[C@@H]4C[C@](C)(O)CC[C@@H]4[C@H]3CC[C@]12C)N(C)C(=O)c1ccccc1 [Example 19, N—((S)-1-((3R,5R,8R,9R,10S,13S,14S,17S)-3-hydroxy-3,13-dimethylhexadecahydro-1H-cyclopenta[a]phenanthren-17-yl)ethyl)-N-methylbenzamide] | 1000 to 10000 nM
C[C@H]([C@H]1CC[C@H]2[C@@H]3CC[C@@H]4C[C@](C)(O)CC[C@@H]4[C@H]3CC[C@]12C)N(C)C(=O)c1ccccc1 [Example 20, N-((1R)-1-((3R,5R,9R,10S,13S,14S,17S)-3-hydroxy-3,13-dimethylhexadecahydro-1H-cyclopenta[a]phenanthren-17-yl)ethyl)-N-methylbenzamide] | 100 to 1000 nM
C[C@@H]([C@H]1CC[C@H]2[C@@H]3CC[C@@H]4C[C@](C)(O)CC[C@@H]4[C@H]3CC[C@]12C)N(C)S(=O)(=O)c1ccccc1 [Example 21, N—((S)-1-((3R,5R,8R,9R,10S,13S,14S,17S)-3-hydroxy-3,13-dimethylhexadecahydro-1H-cyclopenta[a]phenanthren-17-yl)ethyl)-N-methylbenzenesulfonamide] | 1000 to 10000 nM
C[C@H]([C@H]1CC[C@H]2[C@@H]3CC[C@@H]4C[C@](C)(O)CC[C@@H]4[C@H]3CC[C@]12C)N(C)S(=O)(=O)c1ccccc1 [Example 22, N—((R)-1-((3R,5R,8R,9R,10S,13S,14S,17S)-3-hydroxy-3,13-dimethylhexadecahydro-1H-cyclopenta[a]phenanthren-17-yl)ethyl)-N-methylbenzenesulfonamide] | < 100 nM
C[C@H](NC(=O)c1ccccc1)[C@H]1CC[C@H]2[C@@H]3CC[C@@H]4C[C@](C)(O)CC[C@@H]4[C@H]3CC[C@]12C [Example 23, N—((S)-1-((3R,5R,8R,9R,10S,13S,14S,17S)-3-hydroxy-3,13-dimethylhexadecahydro-1H-cyclopenta[a]phenanthren-17-yl)ethyl)benzamide] | 1000 to 10000 nM
C[C@@H](NC(=O)c1ccccc1)[C@H]1CC[C@H]2[C@@H]3CC[C@@H]4C[C@](C)(O)CC[C@@H]4[C@H]3CC[C@]12C [Example 24, N—((R)-1-((3R,5R,8R,9R,10S,13S,14S,17S)-3-hydroxy-3,13-dimethylhexadecahydro-1H-cyclopenta[a]phenanthren-17-yl)ethyl)benzamide] | < 100 nM
C[C@@H](Nc1ccccc1)[C@H]1CC[C@H]2[C@@H]3CC[C@@H]4C[C@](C)(O)CC[C@@H]4[C@H]3CC[C@]12C [Example 25, (3R,5R,8R,9R,10S,13S,14S,17S)-3,13-dimethyl-17-((R)-1-(phenylamino)ethyl)hexadecahydro-1H-cyclopenta[a]phenanthren-3-ol] | < 100 nM
C[C@H](Nc1ccccc1)[C@H]1CC[C@H]2[C@@H]3CC[C@@H]4C[C@](C)(O)CC[C@@H]4[C@H]3CC[C@]12C [Example 26, (3R,5R,8R,9R,10S,13S,14S,17S)-3,13-dimethyl-17-((S)-1-(phenylamino)ethyl)hexadecahydro-1H-cyclopenta[a]phenanthren-3-ol] | 1000 to 10000 nM
C[C@@H](NC(=O)c1cccnc1)[C@H]1CC[C@H]2[C@@H]3CC[C@@H]4C[C@](C)(O)CC[C@@H]4[C@H]3CC[C@]12C [Example 29, N—((R)-1-((3R,5R,8R,9R,10S,13S,14S,17S)-3-hydroxy-3,13-dimethylhexadecahydro-1H-cyclopenta[a]phenanthren-17-yl)ethyl)nicotinamide] | 100 to 1000 nM
C[C@H](NC(=O)c1cccnc1)[C@H]1CC[C@H]2[C@@H]3CC[C@@H]4C[C@](C)(O)CC[C@@H]4[C@H]3CC[C@]12C [Example 30, N—((S)-1-((3R,5R,8R,9R,10S,13S,14S,17S)-3-hydroxy-3,13-dimethylhexadecahydro-1H-cyclopenta[a]phenanthren-17-yl)ethyl)nicotinamide] | 1000 to 10000 nM
COC[C@@]1(O)CC[C@H]2[C@H](CC[C@@H]3[C@@H]2CC[C@]2(C)[C@@H]([C@@H](C)NC(=O)c4ccc(C#N)cn4)CC[C@@H]32)C1 [Example 31, 5-cyano-N—((R)-1-((3R,5R,8R,9R,10S,13S,14S,17S)-3-hydroxy-3-(methoxymethyl)-13-methylhexadecahydro-1H-cyclopenta[a]phenanthren-17-yl)ethyl)picolinamide] | 100 to 1000 nM
COC[C@@]1(O)CC[C@H]2[C@H](CC[C@@H]3[C@@H]2CC[C@]2(C)[C@@H]([C@H](C)NC(=O)c4ccc(C#N)cn4)CC[C@@H]32)C1 [Example 32, 5-cyano-N—((S)-1-((3R,5R,8R,9R,10S,13S,14S,17S)-3-hydroxy-3-(methoxymethyl)-13-methylhexadecahydro-1H-cyclopenta[a]phenanthren-17-yl)ethyl)picolinamide] | 1000 to 10000 nM
C[C@@H](Nc1ccc(C#N)cc1)[C@H]1CC[C@H]2[C@@H]3CC[C@@H]4C[C@](C)(O)CC[C@@H]4[C@H]3CC[C@]12C [Example 33, 4-(((R)-1-((3R,5R,8R,9R,10S,13S,14S,17S)-3-hydroxy-3,13-dimethylhexadecahydro-1H-cyclopenta[a]phenanthren-17-yl)ethyl)amino)benzonitrile] | < 100 nM
COC[C@@]1(O)CC[C@H]2[C@H](CC[C@@H]3[C@@H]2CC[C@]2(C)[C@@H]([C@H](C)Cn4nccc4C#N)CC[C@@H]32)C1 [Example 34, 1-((S)-2-((3R,5R,8R,9R,10S,13S,14S,17R)-3-hydroxy-3-(methoxymethyl)-13-methylhexadecahydro-1H-cyclopenta[a]phenanthren-17-yl)propyl)-1H-pyrazole-5-carbonitrile] | < 100 nM
COC[C@@]1(O)CC[C@H]2[C@H](CC[C@@H]3[C@@H]2CC[C@]2(C)[C@@H]([C@H](C)Cn4ccc(C#N)n4)CC[C@@H]32)C1 [Example 35, 1-((S)-2-((3R,5R,8R,9R,10S,13S,14S,17R)-3-hydroxy-3-(methoxymethyl)-13-methylhexadecahydro-1H-cyclopenta[a]phenanthren-17-yl)propyl)-1H-pyrazole-3-carbonitrile] | < 100 nM
COC[C@@]1(O)CC[C@H]2[C@H](CC[C@@H]3[C@@H]2CC[C@]2(C)[C@@H]([C@@H](C)Cn4ccc(C#N)n4)CC[C@@H]32)C1 [Example 36, 1-((R)-2-((3R,5R,8R,9R,10S,13S,14S,17R)-3-hydroxy-3-(methoxymethyl)-13-methylhexadecahydro-1H-cyclopenta[a]phenanthren-17-yl)propyl)-1H-pyrazole-3-carbonitrile] | < 100 nM
